The values below come from US8791162B2, “Cathepsin cysteine protease inhibitors” (Merck Sharp & Dohme Corp., priority 2011, dated 2014).

As usually defined, the AUC(0-inf) is total exposure, with the tail of the curve extrapolated. A lower AUC(0-inf) goes with less exposure. As usually defined, the AUC is concentration integrated over time. As usually defined, the clearance is the volume of plasma or blood freed of the substance per unit of time.

For data set [1] the following is noted: rhesus monkey, in vivo, po, 2.5 mg/kg.
Protocol: The pharmacokinetic evaluation was carried out following oral administration to monkeys of the following ODN forms and formulations: D6-ODN spray-dried formulation (A), D6-ODN conventional formulation (B), D0-ODN spray-dried formulation (C) and D0-ODN conventional formulation (D).
The deuterated analog of odanacatib (D6-ODN) as well as ODN (D0-ODN) were prepared either as spray-dried or conventional (crystalline) formulations for pharmacokinetic study in monkeys. The spray-dried form was suspended in water, while the crystalline drug was dissolved in Imwitor:Tween for oral administration to monkeys. Spray-dried D6-ODN (A), crystalline D6-ODN (B), spray-dried D0-ODN (C) and crystalline D0-ODN (D) were dosed to monkeys (n=4) in a cross-over fashion. Each monkey was administered a ˜2.5 mg/kg dose each of forms B and D as a mixture in period one, and forms C and A were then dosed after a washout period. […]
The concentrations of D6-ODN and D0-ODN in plasma were determined by LC-MS/MS in the positive ion mode using the Turbo Ion Spray interface. […] Quantification was based on selected reaction monitoring of the following precursor/product ion pairs: m/z 526.3→313.0 (D0-ODN); m/z 532.2→313.2 (D6-ODN); m/z 538.3→325.2 (^13C12-ODN). The lower limit of quantitation was 1.9 nM. […]
A short description of data set [2]: Rhesus IV Pharmacokinetics. It counts as in vivo, rhesus monkeys. The note with it: for % AUC Extrap. / AUC(0-inf) / C0 / AUC / clearance / Vd / half-life: male rhesus monkeys; for concentration at 0.5 h: 0.50 hours; for AUC: read-out: AUC(0-x); for clearance: read-out: Cl (plasma clearance); for Vd: read-out: Vdss; for half-life: read-out: t½ (converted). As to the method:
The study was conducted in male rhesus monkeys (n=4) via the intravenous route using a deuteriated (D6-Odanacatib, or D6-ODN) and non-deuteriated (D0-Odanacatib, or D0-ODN) forms of odanacatib. The dosing solution was prepared in DMSO at a concentration of 7.5 mg/mL and the dose volume was 0.1 mL/kg. Each monkey was administered a 0.75 mg/kg dose each of D6-ODN and D0-ODN as a mixture. Animals were fasted overnight prior to dosing. The dose was administered via the saphenous vein. […] Plasma was stored at −70° C. until analysis.
The lower limit of quantitation was 0.48 nM.
Pharmacokinetic parameters were obtained using non-compartmental methods (Watson®). The plasma clearance (CLP) was calculated as the IV dose divided by the area under the plasma concentration versus time curve (AUC0-∞). AUC was determined using logarithmic trapezoidal interpolation.

In data set [3] the target is T1, human Cat K (Homo sapiens, UniProt P43235).
T1 sequence (P43235 115-329): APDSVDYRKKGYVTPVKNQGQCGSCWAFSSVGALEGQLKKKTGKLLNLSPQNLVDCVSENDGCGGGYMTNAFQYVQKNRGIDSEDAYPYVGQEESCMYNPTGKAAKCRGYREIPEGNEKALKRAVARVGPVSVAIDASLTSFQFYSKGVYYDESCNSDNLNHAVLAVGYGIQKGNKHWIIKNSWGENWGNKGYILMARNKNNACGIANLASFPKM
To be noted: human Cat K vs other human cathepsins; cited from earlier work.

[4] abbreviates: rhesus monkey, plasma, male rhesus monkeys n=4, 0.75 mg/kg IV.
[5] abbreviates: rhesus monkey, plasma, 0.75 mg/kg IV.

`[2H]C([2H])([2H])C(F)(C[C@H](N[C@@H](c1ccc(-c2ccc(S(C)(=O)=O)cc2)cc1)C(F)(F)F)C(=O)NC1(C#N)CC1)C([2H])([2H])[2H]` [Example D6-ODN, (2S)—N-(1-cyanocyclopropyl)-5,5,5-trideuterio-4-fluoro-4-(trideuteriomethyl)-2-[[(1S)-2,2,2-trifluoro-1-[4-(4-methylsulfonylphenyl)phenyl]ethyl]amino]pentanamide]: in data set [1], the “increase in plasma elimination half-life of ODN by deuterium substitution” value is reported as “about 2.5 fold”. Moreover, the “% AUC Extrap.” value in data set [2] (0.75 mg/kg IV) is recorded as 1.7%. Also, in data set [2] (setting [4]), the concentration at 0.08 h was 894 nM, the concentration at 0.25 h turned out to be 839 nM, the concentration at 0.5 h is 793 nM and the concentration at 1 h came out at 831 nM. Besides, in data set [2] (setting [4]), the concentration at 4 h came to 633 nM, the concentration at 8 h came out at 633 nM, the concentration at 12 h is 515 nM and the concentration at 24 h is 273 nM. In data set [2] (setting [4]), this compound gave a concentration at 30 h of 208 nM and a concentration at 48 h of 70.7 nM. Besides, the concentration at 72 h in data set [2] (rhesus monkey, plasma, male rhesus monkeys n=4, 0.75 mg/kg IV, 72.00 hours) stood at 28.4 nM. The compound also came in with a concentration at 96 h in data set [2] (rhesus monkey, plasma, male rhesus monkeys n=4, 0.75 mg/kg IV, 96.00 hours) of 13.8 nM. Also, in data set [2] (setting [5]), the AUC(0-inf) came out at 18 µM·h, the C0 came out at 933 nM, the AUC amounted to 17.7 µM·h and the clearance was determined as 1.4 mL/min/kg. In data set [2] (setting [5]), the Vd is 1.7 L/kg and the half-life is 16 h. Moreover, in data set [2] (rhesus monkeys, 0.75 mg/kg IV), the “higher exposure compared to D0-ODN” value was 3 fold, the “longer half-life compared to D0-ODN” value came to 4 fold and the “lower clearance compared to D0-ODN” value turned out to be 3 fold.

With `CC(C)(F)C[C@H](N[C@@H](c1ccc(-c2ccc(S(C)(=O)=O)cc2)cc1)C(F)(F)F)C(=O)NC1(C#N)CC1` [Example D0-ODN, N^1-(1-cyanocyclopropyl)-4-fluoro-N^2-{(1S)-2,2,2-trifluoro-1-[4′-(methylsulfonyl)-1,1′-biphenyl-4-yl]ethyl}-L-leucinamide, reference compound], in data set [3], the “selectivity against all other known human cathepsins” value was at least 300 fold. Further, the “% AUC Extrap.” value in data set [2] (0.75 mg/kg IV) is 0.25%. Besides, in data set [2] (setting [4]), the concentration at 0.08 h worked out at 1020 nM, the concentration at 0.25 h came to 947 nM, the concentration at 0.5 h was 872 nM and the concentration at 1 h stood at 854 nM. In data set [2] (setting [4]), the concentration at 4 h was 462 nM, the concentration at 8 h is 250 nM, the concentration at 12 h was 130 nM and the concentration at 24 h is 14.5 nM. In data set [2] (setting [4]), the concentration at 30 h was 6.22 nM and the concentration at 48 h came out at 1.22 nM. For the same compound, in data set [2] (setting [5]), the AUC(0-inf) stood at 5.73 µM·h, the C0 came to 1080 nM, the AUC came to 5.71 µM·h and the clearance worked out at 4.6 mL/min/kg. Besides, in data set [2] (setting [5]), the Vd amounted to 1.9 L/kg and the half-life was 3.7 h.
